Laboratory results reported in publication PMC11377395 (Purinergic Signalling, 2024).

Target: T1, A3 adenosine receptor (hA3AR) (Homo sapiens, UniProt P0DMS8)
T1 construct: gene ADORA3
T1 sequence (P0DMS8 1-318): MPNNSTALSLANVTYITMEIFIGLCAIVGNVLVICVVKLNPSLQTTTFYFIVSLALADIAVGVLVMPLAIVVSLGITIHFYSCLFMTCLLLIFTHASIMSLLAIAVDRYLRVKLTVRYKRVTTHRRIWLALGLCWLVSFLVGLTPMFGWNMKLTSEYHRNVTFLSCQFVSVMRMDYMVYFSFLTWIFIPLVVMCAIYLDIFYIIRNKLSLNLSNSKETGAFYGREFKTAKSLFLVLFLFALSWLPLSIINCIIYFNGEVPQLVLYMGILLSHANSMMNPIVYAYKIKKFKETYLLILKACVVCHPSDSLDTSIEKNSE
Assay: positive allosteric modulation of MRS5698 at […] in cAMP assay, CHO-hA3AR (also HL-60 cells)
Type: cell-based

SMILES: Clc1ccc(Nc2nc3ccccc3c3[nH]c(C4CCCCC4)nc23)cc1Cl [LUF6000, N-(3,4-Dichloro-phenyl)-2-cyclohexyl-1 H-imidazo[4,5-c]quinolin-4-amine]
- % Emax enhancement: 19 % Emax enhancement
